In patent US12227522B2, “Synthesis of structural analogs of largazole and associated compounds” (COLORADO STATE UNIVERSITY RESEARCH FOUNDATION, priority 2020, dated 2025):

Tests used:
Type in all cases: biochemical
HDAC 8 = target: T1, HDAC 8 (Homo sapiens, UniProt Q9BY41); test: in vitro HDAC inhibition, HDAC isoform 8; settings: Class 1, in vitro; read-out: HDAC inhibition as IC50, HDAC Isoform 8
T1 sequence (Q9BY41 1-377): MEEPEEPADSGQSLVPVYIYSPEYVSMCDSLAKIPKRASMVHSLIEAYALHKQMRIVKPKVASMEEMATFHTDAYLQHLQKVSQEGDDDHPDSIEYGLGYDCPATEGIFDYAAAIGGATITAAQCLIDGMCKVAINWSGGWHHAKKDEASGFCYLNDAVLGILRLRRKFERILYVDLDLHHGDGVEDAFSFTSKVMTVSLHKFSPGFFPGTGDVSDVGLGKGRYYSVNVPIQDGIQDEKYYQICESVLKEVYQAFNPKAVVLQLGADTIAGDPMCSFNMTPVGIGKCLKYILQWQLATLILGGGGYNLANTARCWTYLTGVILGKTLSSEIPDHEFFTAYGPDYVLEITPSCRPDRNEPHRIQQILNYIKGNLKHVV

HDAC 4 = HDAC 4 (Homo sapiens, UniProt P56524); test: in vitro HDAC inhibition, HDAC isoform 4; settings: Class 2a, read-out: HDAC inhibition as IC50, HDAC Isoform 4
Sequence of HDAC 4 (P56524 whole entry, canonical isoform): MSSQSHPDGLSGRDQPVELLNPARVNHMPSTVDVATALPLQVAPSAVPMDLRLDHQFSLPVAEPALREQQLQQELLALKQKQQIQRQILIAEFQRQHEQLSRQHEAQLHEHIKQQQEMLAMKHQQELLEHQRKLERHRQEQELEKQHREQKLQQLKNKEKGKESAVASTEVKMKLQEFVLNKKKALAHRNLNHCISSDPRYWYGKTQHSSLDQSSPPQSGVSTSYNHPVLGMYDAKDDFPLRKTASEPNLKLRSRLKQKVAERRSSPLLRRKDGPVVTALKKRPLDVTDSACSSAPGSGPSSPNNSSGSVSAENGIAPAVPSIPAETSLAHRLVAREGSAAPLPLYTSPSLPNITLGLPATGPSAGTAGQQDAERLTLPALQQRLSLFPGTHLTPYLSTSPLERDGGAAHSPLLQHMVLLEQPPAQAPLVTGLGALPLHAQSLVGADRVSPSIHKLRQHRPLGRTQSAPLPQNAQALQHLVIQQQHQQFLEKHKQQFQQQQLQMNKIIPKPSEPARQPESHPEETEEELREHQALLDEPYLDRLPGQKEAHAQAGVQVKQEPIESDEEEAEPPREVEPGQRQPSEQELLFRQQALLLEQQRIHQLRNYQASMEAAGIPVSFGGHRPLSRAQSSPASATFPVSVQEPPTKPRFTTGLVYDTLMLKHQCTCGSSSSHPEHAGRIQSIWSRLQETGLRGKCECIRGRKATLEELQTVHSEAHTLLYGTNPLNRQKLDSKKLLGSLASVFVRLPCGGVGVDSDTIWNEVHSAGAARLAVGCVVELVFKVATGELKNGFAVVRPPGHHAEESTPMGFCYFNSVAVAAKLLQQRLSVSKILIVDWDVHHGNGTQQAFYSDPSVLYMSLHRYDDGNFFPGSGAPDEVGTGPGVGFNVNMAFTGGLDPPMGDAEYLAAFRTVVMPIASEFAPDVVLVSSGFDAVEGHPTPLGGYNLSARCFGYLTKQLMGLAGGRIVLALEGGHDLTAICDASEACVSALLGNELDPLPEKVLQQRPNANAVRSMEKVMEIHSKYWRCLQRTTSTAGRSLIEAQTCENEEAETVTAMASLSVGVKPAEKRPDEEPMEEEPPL

HDAC 3 = HDAC 3 (Homo sapiens, UniProt O15379); test: in vitro HDAC inhibition, HDAC isoform 3; settings: Class 1, in vitro; read-out: HDAC inhibition as IC50, HDAC Isoform 3
Sequence of HDAC 3 (O15379 whole entry, canonical isoform): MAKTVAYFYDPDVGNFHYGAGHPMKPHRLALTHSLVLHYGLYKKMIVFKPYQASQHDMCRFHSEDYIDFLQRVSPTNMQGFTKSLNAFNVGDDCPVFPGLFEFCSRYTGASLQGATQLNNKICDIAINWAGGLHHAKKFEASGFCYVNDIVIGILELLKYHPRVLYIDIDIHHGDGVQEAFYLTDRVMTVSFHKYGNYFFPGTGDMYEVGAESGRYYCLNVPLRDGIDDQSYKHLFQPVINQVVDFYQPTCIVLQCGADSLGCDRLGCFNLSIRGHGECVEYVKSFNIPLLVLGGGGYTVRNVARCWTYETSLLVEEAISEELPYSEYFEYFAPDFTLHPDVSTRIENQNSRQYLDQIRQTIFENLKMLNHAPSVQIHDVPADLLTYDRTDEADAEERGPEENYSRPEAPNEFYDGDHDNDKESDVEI
Sequence of HDAC 3 (Q9Y618 395-489 partner limits assumed): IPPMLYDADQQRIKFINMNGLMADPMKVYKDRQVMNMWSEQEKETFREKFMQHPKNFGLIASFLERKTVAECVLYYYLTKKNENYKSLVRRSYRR

HDAC 1 = HDAC 1 (Homo sapiens, UniProt Q13547); test: in vitro HDAC inhibition, HDAC isoform 1; settings: Class 1, in vitro; read-out: HDAC inhibition as IC50, HDAC Isoform 1
Sequence of HDAC 1 (Q13547 whole entry, canonical isoform): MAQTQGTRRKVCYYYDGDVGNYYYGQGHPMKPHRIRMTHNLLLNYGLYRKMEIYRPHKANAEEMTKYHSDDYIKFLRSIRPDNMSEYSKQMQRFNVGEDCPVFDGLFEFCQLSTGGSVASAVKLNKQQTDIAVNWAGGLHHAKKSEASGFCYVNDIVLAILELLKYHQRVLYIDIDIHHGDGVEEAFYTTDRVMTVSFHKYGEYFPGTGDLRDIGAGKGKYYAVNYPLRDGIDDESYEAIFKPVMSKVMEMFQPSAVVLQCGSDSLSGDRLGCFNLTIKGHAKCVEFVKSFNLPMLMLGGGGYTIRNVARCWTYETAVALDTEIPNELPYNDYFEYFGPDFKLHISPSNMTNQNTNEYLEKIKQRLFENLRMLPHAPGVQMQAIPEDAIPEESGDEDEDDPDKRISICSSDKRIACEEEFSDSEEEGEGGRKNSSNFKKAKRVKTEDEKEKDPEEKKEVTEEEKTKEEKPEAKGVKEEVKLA

HDAC 6 = target: T2, HDAC 6 (Homo sapiens, UniProt Q9UBN7); test: in vitro HDAC inhibition, HDAC isoform 6; settings: Class 2b, read-out: HDAC inhibition as IC50, HDAC Isoform 6
T2 sequence (Q9UBN7 1-1215): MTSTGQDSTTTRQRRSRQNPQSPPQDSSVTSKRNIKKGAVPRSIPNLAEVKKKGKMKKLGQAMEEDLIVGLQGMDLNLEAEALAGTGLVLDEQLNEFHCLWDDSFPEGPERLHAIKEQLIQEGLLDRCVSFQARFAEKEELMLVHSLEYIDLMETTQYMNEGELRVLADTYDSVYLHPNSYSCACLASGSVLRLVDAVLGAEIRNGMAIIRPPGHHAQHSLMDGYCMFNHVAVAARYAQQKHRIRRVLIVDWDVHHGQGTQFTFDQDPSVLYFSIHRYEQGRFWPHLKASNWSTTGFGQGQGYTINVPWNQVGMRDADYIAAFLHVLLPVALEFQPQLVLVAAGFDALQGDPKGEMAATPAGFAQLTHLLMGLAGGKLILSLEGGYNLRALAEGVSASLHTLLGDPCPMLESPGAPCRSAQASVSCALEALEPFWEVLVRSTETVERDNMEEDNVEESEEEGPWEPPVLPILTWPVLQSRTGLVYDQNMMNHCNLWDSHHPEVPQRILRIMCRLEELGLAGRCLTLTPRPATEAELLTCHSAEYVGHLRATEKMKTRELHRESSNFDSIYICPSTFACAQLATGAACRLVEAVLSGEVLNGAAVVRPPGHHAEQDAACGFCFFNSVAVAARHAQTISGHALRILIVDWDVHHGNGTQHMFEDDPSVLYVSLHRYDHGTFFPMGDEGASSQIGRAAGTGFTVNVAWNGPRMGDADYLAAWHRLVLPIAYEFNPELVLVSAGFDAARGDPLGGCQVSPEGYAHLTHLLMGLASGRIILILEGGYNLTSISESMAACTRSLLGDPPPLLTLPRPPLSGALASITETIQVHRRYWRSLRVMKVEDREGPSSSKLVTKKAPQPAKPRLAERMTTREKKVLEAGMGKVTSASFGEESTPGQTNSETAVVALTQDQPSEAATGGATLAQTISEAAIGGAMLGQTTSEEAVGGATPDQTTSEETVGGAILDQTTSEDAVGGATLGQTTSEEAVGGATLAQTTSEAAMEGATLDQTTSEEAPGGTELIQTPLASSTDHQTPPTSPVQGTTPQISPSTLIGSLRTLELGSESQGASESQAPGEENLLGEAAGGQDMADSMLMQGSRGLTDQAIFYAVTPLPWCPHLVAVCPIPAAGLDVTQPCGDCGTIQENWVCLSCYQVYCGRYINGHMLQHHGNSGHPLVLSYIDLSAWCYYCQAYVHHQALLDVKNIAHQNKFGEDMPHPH

HDAC 5 = HDAC 5 (Homo sapiens, UniProt Q9UQL6); test: in vitro HDAC inhibition, HDAC isoform 5; settings: Class 2a, read-out: HDAC inhibition as IC50, HDAC Isoform 5
Sequence of HDAC 5 (Q9UQL6 whole entry, canonical isoform): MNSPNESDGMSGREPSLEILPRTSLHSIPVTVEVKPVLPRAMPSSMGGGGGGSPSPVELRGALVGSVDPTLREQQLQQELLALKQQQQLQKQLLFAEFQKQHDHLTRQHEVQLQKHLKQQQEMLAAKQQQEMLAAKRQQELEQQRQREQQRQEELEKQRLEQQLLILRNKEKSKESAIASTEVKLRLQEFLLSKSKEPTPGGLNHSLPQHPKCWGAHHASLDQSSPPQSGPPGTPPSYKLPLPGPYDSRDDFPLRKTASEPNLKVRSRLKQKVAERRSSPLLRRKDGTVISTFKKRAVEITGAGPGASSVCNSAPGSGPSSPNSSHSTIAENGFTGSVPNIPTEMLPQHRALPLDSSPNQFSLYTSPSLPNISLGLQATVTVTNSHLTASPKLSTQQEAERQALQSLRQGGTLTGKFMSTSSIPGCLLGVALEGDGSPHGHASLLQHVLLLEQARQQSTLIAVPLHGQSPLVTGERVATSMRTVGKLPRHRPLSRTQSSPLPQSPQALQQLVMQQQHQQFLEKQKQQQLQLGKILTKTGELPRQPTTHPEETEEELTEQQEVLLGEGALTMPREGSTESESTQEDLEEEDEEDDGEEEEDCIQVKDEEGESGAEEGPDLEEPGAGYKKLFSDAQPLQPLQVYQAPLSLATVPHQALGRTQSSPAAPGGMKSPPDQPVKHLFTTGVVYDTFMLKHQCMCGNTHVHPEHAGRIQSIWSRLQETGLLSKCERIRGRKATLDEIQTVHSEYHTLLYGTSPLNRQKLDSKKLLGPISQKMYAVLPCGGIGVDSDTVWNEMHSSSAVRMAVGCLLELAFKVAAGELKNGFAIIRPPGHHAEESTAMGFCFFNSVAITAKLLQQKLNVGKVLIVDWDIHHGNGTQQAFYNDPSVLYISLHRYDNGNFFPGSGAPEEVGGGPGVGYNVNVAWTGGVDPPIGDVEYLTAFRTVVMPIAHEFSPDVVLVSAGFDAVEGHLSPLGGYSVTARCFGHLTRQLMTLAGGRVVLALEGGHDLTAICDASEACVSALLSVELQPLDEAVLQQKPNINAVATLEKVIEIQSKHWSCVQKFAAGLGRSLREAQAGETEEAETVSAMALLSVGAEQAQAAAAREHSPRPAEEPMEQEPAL

HDAC 7 = target: T3, HDAC 7 (Homo sapiens, UniProt Q8WUI4); test: in vitro HDAC inhibition, HDAC isoform 7; settings: Class 2a, read-out: HDAC inhibition as IC50, HDAC Isoform 7
T3 sequence (Q8WUI4 1-952): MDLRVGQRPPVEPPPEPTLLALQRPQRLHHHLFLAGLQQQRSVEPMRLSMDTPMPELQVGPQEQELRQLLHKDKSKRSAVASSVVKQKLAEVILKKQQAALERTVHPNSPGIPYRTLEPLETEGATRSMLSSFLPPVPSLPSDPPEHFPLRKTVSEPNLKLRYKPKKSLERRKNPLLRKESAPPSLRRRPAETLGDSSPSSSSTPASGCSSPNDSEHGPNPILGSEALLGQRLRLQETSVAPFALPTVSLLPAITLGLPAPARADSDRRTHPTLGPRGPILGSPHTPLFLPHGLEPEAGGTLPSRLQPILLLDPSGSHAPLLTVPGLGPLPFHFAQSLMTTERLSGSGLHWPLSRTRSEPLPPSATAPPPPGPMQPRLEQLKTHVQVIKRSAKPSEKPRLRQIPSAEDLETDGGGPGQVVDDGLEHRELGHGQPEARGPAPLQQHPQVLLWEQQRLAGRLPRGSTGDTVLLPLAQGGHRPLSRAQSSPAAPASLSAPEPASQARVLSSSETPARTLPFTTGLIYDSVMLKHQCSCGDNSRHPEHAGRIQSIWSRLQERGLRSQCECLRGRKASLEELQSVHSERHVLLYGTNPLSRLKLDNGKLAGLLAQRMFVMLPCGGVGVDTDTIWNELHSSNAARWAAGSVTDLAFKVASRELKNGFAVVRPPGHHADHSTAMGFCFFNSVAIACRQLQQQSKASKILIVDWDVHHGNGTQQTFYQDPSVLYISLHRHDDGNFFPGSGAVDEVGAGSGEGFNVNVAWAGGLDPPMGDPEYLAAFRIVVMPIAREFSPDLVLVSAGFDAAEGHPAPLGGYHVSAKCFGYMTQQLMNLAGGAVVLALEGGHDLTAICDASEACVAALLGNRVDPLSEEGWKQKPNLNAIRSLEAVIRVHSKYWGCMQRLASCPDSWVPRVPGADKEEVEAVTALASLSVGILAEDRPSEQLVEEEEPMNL

HDAC 9 = HDAC 9 (Homo sapiens, UniProt Q9UKV0); test: in vitro HDAC inhibition, HDAC isoform 9; settings: Class 2a, read-out: HDAC inhibition as IC50, HDAC Isoform 9
Sequence of HDAC 9 (Q9UKV0 whole entry, canonical isoform): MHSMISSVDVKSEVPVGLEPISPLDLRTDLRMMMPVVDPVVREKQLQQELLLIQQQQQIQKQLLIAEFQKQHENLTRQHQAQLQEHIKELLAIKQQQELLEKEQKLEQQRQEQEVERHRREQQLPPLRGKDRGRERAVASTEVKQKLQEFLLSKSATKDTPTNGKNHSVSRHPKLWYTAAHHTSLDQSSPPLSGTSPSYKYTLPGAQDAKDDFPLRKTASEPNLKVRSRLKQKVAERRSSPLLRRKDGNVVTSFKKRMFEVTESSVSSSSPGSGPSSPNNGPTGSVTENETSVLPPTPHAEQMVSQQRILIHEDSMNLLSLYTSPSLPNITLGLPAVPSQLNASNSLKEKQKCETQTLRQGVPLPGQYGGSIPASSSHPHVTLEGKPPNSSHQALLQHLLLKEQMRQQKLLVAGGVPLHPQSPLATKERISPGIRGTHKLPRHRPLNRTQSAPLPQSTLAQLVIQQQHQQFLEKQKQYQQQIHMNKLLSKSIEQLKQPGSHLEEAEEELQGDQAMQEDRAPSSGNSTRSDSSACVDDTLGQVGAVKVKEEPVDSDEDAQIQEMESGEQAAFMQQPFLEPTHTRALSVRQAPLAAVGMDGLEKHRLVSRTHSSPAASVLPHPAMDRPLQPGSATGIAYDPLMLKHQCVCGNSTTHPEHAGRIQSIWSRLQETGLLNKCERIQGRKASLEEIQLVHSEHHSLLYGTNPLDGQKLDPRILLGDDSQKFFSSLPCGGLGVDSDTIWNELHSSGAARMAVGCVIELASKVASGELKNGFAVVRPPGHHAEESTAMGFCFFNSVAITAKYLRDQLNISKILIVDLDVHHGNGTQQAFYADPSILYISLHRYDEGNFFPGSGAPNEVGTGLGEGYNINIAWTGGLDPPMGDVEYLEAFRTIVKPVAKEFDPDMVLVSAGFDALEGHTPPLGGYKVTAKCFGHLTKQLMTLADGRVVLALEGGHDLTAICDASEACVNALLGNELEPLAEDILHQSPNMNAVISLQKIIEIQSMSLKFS

HDAC 11 = target: T4, HDAC 11 (Homo sapiens, UniProt Q96DB2); test: in vitro HDAC inhibition, HDAC isoform 11; settings: Class 4, in vitro; read-out: HDAC inhibition as IC50, HDAC Isoform 11
T4 sequence (Q96DB2 1-347): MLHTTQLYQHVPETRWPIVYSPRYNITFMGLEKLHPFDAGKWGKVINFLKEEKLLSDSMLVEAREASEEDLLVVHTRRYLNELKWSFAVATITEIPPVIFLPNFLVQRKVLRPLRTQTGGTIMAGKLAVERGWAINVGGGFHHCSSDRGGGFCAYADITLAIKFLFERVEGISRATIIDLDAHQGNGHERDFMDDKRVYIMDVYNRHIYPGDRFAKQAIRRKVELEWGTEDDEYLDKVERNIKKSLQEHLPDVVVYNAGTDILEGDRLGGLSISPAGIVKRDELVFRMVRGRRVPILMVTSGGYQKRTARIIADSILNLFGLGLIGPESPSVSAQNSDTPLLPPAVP

HDAC 2 = HDAC 2 (Homo sapiens, UniProt Q92769); test: in vitro HDAC inhibition, HDAC isoform 2; settings: Class 1, in vitro; read-out: HDAC inhibition as IC50, HDAC Isoform 2
Sequence of HDAC 2 (Q92769 whole entry, canonical isoform): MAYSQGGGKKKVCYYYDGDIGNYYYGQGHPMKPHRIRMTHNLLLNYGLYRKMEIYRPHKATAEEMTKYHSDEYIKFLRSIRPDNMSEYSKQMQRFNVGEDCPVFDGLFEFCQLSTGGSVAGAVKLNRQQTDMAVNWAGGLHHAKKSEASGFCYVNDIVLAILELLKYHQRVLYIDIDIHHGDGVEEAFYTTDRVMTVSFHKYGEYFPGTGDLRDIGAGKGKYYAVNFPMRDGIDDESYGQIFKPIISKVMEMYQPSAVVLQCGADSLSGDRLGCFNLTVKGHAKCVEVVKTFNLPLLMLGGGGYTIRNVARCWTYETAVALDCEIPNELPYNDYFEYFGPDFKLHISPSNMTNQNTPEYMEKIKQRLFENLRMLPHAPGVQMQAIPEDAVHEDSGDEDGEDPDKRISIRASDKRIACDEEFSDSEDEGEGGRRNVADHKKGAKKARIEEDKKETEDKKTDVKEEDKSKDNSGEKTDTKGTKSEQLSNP

Measured: IC50

CC(C)[C@@H]1NC(=O)[C@]2(C)CSC(=N2)c2csc(n2)CNC(=O)C[C@@H](/C=C/CCO)NC1=O
> 10 mM: HDAC 8 | HDAC 4 | HDAC 3 | HDAC 1 | HDAC 6 | HDAC 5 | HDAC 7 | HDAC 9 | HDAC 11 | HDAC 2
